# Measured values reported in PMC6254011, “Design, Synthesis and Anti-HIV Integrase Evaluation of 4-Oxo-4H-quinolizine-3-carboxylic Acid Derivatives” (Molecules, 2009).
# Columns and labels:
# [1] = target: T1, recombinant HIV integrase (Human immunodeficiency virus type 1 group M subtype B, UniProt P04585); assay: HIV integrase inhibition assay (microtiter plate, biotin donor DNA / digoxigenin target DNA, colorimetric); assay type: biochemical; conditions: total inhibitory effect (3′ process reaction and strand transfer reaction), initial concentration 100 μg/mL, class symbol; for inhibition at 100 µg/mL: read-out: IC50 (μg/mL)
# T1 construct: recombinant HIV integrase
# Text: The target compounds 8, 9, 12, 14 were screened against purified HIV IN to determine any potential inhibitory activity. Thus, a synthesized 30 oligonucleotide and a 20 oligonucleotide were used as donor DNA and target DNA, respectively, which were purchased from Shanghai Sangon Biological Engineering Technology & Services Co. Ltd. The donor DNA was biotinylated at the 5′ end (5′ bio-DNA) and immobilized on streptavidin-coated 96-well microtiter plates. To the donor DNA streptavidin-coated 96-well microtiter plate were added test sample, 3' digoxygenin-labeled target DNA (3' dig-DNA) and recombinant HIV integrase and subjected to incubation in optimized condition.
# The plate was further washed with phosphate-buffered saline (PBS) containing 0.1% Tween®-20 and anti-digoxigenin-peroxidase (POD, 100 µL) was added to each well. After incubation at 37°C for 60 min, the plate was washed with PBS containing 0.1% Tween®-20. The digoxygenin-labeled products were visualized by adding a POD substrate, tetramethylbenzidine (TMB). The colorimetric reaction was stopped by addition of 0.5 mol/L H2SO4 (100 µL), and the absorbance was measured at 450 nm on a microplate reader. The total inhibitory effect (including inhibiting 3′ process reaction and strand transfer reaction) were obtained by comparing the absorbance of drug group with control group (without test compound).
# [2] = Mg2+ binding by UV-Vis titration in CH3CN; assay type: physicochemical
# Method: Inspirited by this assumption, preliminary ion binding experiments were also carried out by UV-Vis spectroscopy, using compound 14a as an example. […] As the Mg^2+ concentration (as perchlorate salt) increased, the absorption intensity of the peak at 414 nm first decreased and then the wavelength shifted blue to around 402 nm. […] However, the Mg^2+ induced a blue shift of the absorption curve of compound 14a. Similar behaviors were also observed for other divalent metals, including Mn^2+, Co^2+, Cu^2+, Ca^2+ and Ni^2+ (not shown in Figure 3).
# Figure 2 Changes of UV-vis spectra with 14a in CH3CN on addition of 0-16×10^-6 mol·L^-1 of [Mg^2+] at 25 °C. Conditions: [Mg^2+] =2 × 10^-3 M. [14a] = 2 × 10^-5 MBlack: 0×10^-6 mol·L^-1, blue: 2×10^-6 mol·L^-1, red: 4×10^-6 mol·L^-1, navy: 6×10^-6 mol·L^-1, brown: 8×10^-6 mol·L^-1, green: 10×10^-6 mol·L^-1, dark cyan: 12×10^-6 mol·L^-1, brass: 16×10^-6 mol.L^-1.
# Figure 3 UV-Vis absorption spectra of free 14a and 14a in the presence of K^+, Na^+ or Mg^2+ ion in CH3CN solution. Conditions: [14a] = 2 × 10^-5 M; [Mg^2+] = [K^+] = [Na^+] = 2×10^-3 M; Black: 14a, blue: Na^+ complex, red: K^+ complex, navy: Mg^2+ complex.
# [3] = Solubility in water (qualitative remark); assay type: physicochemical
Molecule,inhibition at 100 µg/mL [1] [%],melting point [°C],change of UV-Vis absorption in the presence of Na+ or K+ ([2]; 100-fold equivalent amount of Na+ or K+),change of UV-Vis absorption curve upon addition of Mg2+ ([2]; [14a] = 2 × 10^-5 M),solubility in water [3],IC50 (μg/mL) [1]
"O=C(O)c1cc(NS(=O)(=O)c2ccc(Cl)cc2)c2ccccn2c1=O [8c, 1-p-Chlorophenylsulfonamido-4-oxo-4H-quinolizine-3-carboxylic acid]",< 50,> 300,–,–,–,–
"COc1ccc2[nH]c(-c3cc(C(=O)O)c(=O)n4ccccc34)nc2c1 [14c, 1-(5(6)-Methoxy-1H-benzimidazol-2-yl)-4-oxo-4H-quinolizine-3-carboxylic acid]",< 50,> 300,–,–,–,–
"COc1ccc(S(=O)(=O)Nc2cc(C(=O)O)c(=O)n3ccccc23)cc1 [8d, 1-p-Methoxyphenylsulfonamido-4-oxo-4H-quinolizine-3-carboxylic acid]",< 50,> 300,–,–,–,–
"O=C(O)c1cc(-c2nc3ccccc3[nH]2)c2ccccn2c1=O [14a, 1-(1H-Benzimidazol-2-yl)-4-oxo-4H-quinolizine-3-carboxylic acid]",< 50,> 300,no obvious change,two-step shift of the absorption curve,low solubility,–
"O=C(O)c1cc(-c2nc3cc(Cl)ccc3[nH]2)c2ccccn2c1=O [14b, 1-(5(6)-Chloro-1H-benzimidazol-2-yl)-4-oxo-4H-quinolizine-3-carboxylic acid]",< 50,> 300,–,–,–,–
"O=C(O)c1cc(NS(=O)(=O)c2ccc([N+](=O)[O-])cc2)c2ccccn2c1=O [8e, 1-p-Nitrophenylsulfonamido-4-oxo-4H-quinolizine-3-carboxylic acid]",< 50,> 300,–,–,–,–
"O=C(O)c1cc(-c2nc3ccccc3s2)c2ccccn2c1=O [compound 12, 1-benzothiazol-2-yl-4-oxo-4H-quinolizine-3-carboxylic acid]",< 50,> 300,–,–,–,–
"COc1cc(C(=O)Nc2cc(C(=O)O)c(=O)n3ccccc23)cc(OC)c1OC [9a, 1-(3,4,5-Trimethoxyphenylcarbonylamino)-4-oxo-4H-quinolizine-3-carboxylic acid]",< 50,280 to 282,–,–,–,–
"O=C(O)c1cc(NS(=O)(=O)c2ccccc2)c2ccccn2c1=O [8a, 1-Phenylsulfonamido-4-oxo-4H-quinolizine-3-carboxylic acid]",< 50,245 to 247,–,–,–,–
"Cc1ccc(S(=O)(=O)Nc2cc(C(=O)O)c(=O)n3ccccc23)cc1 [8b, 1-p-Methylphenylsulfonamido-4-oxo-4H-quinolizine-3-carboxylic acid]",< 50,> 300,–,–,–,–
"1-(3,4-Dimethoxystyrylcarboxylamino)-4-oxo-4H-quinolizine-3-carboxylic acid [9b]",–,–,–,–,–,-^2 (“-” indicates that the HIV-IN inhibitory effect was less than 50% at the initial concentration)
